{"source": "PubChem BioAssay AID268", "about": "(DTP/NCI, 2004)", "tested_on": "CD2F1 mice, P1798 lymphosarcoma sc, tumor weight T/C", "assay": "NCI In Vivo Anticancer Drug Screen. Data for tumor model P1798 Lymphosarcoma (subcutaneous) in CD2F1 (CDF1) mice", "conditions": "endpoint: mean tumor weight, higher = larger tumour", "method": "The antitumor activity of compounds was measured in mice bearing transplantable tumors. Survival or tumor size were measured and the results are expressed as the measurement made in the treated group (T) divided by the measurement made in the vehicle treated control group (C). The tumor model used in this assay is P1798 Lymphosarcoma (subcutaneous) in CD2F1 (CDF1) mice", "key": {"[1]": {"conditions": "dose: 12.5 mg/kg/injection, schedule: Q01DX010 (ip), vehicle: saline"}, "[2]": {"conditions": "dose: 25.0 mg/kg/injection, schedule: Q01DX010 (ip), vehicle: saline"}, "[3]": {"conditions": "dose: 100.0 mg/kg/injection, schedule: Q01DX010 (ip), vehicle: saline"}, "[4]": {"conditions": "dose: 200.0 mg/kg/injection, schedule: Q01DX010 (ip), vehicle: saline"}, "[5]": {"conditions": "dose: 6.25 mg/kg/injection, schedule: Q01DX010 (ip), vehicle: saline"}, "[6]": {"conditions": "dose: 300.0 mg/kg/injection, schedule: Q01DX010 (ip), vehicle: saline"}, "[7]": {"conditions": "dose: 50.0 mg/kg/injection, schedule: Q01DX010 (ip), vehicle: saline"}}, "note": "Several values for one entry are separate records, joined by “and”; a condition that tells them apart may be missing. Equal values may be shown once.", "data": [{"smiles": "CC(/C=N/N=C(N)N)=N\\N=C(N)N", "values": [{"measurement": "T/C", "setting": "dose: 15.0 mg/kg/injection, schedule: Q01DX010 (ip), vehicle: saline", "value": "78 % of control"}, {"measurement": "T/C", "setting": "dose: 30.0 mg/kg/injection, schedule: Q01DX010 (ip), vehicle: saline", "value": "87 % of control"}, {"measurement": "T/C", "setting": "dose: 60.0 mg/kg/injection, schedule: Q01DX010 (ip), vehicle: saline", "value": "50 % of control"}]}, {"smiles": "NC1(C(=O)O)CCCC1", "values": [{"measurement": "T/C", "setting": "dose: 22.5 mg/kg/injection, schedule: Q01DX010 (ip), vehicle: saline", "value": "40 % of control and 48 % of control"}, {"measurement": "T/C", "setting": "dose: 45.0 mg/kg/injection, schedule: Q01DX010 (ip), vehicle: saline", "value": "21 % of control and 38 % of control"}, {"measurement": "T/C", "setting": "dose: 90.0 mg/kg/injection, schedule: Q01DX010 (ip), vehicle: saline", "value": "4 % of control"}]}, {"smiles": "COc1ccc2cc3[n+](cc2c1OC)CCc1cc2c(cc1-3)OCO2", "values": [{"measurement": "T/C", "setting": "dose: 12.0 mg/kg/injection, schedule: Q01DX011 (ip), vehicle: saline", "value": "75 % of control"}]}, {"smiles": "CN(Cc1cnc2nc(N)nc(N)c2n1)c1c(Cl)cc(C(=O)NC(CCC(=O)O)C(=O)O)cc1Cl", "note": "(configuration not stated)", "values": [{"measurement": "T/C", "setting": "dose: 10.0 mg/kg/injection, schedule: Q01DX010 (ip), vehicle: saline", "value": "33 % of control"}, {"measurement": "T/C", "setting": "dose: 20.0 mg/kg/injection, schedule: Q01DX010 (ip), vehicle: saline", "value": "12 % of control"}]}, {"smiles": "O=C(NCCCCC(NC(=O)OCc1ccccc1)C(=O)NCCCCCCNCCCCCCNC(=O)C(CCCCNC(=O)OCc1ccccc1)NC(=O)OCc1ccccc1)OCc1ccccc1", "note": "(configuration not stated)", "values": [{"measurement": "T/C", "setting": "[1]", "value": "78 % of control"}, {"measurement": "T/C", "setting": "[2]", "value": "66 % of control"}, {"measurement": "T/C", "setting": "[3]", "value": "44 % of control and 61 % of control"}, {"measurement": "T/C", "setting": "[4]", "value": "70 % of control"}]}, {"smiles": "CO[C@@]12[C@H](COC(N)=O)C3=C(C(=O)C(C)=C(N)C3=O)N1C[C@@H]1N[C@@H]12", "values": [{"measurement": "T/C", "setting": "dose: 0.25 mg/kg/injection, schedule: Q01DX010 (ip), vehicle: saline", "value": "85 % of control"}, {"measurement": "T/C", "setting": "dose: 0.5 mg/kg/injection, schedule: Q01DX010 (ip), vehicle: saline", "value": "61 % of control"}, {"measurement": "T/C", "setting": "dose: 1.0 mg/kg/injection, schedule: Q01DX010 (ip), vehicle: saline", "value": "36 % of control"}]}, {"smiles": "CCCNc1ncnc2[nH]ncc12", "values": [{"measurement": "T/C", "setting": "[5]", "value": "92 % of control and 95 % of control"}, {"measurement": "T/C", "setting": "[1]", "value": "72 % of control"}, {"measurement": "T/C", "setting": "[2]", "value": "25 % of control"}]}, {"smiles": "COCCOC", "values": [{"measurement": "T/C", "setting": "[6]", "value": "100 % of control"}, {"measurement": "T/C", "setting": "dose: 450.0 mg/kg/injection, schedule: Q01DX010 (ip), vehicle: saline", "value": "62 % of control"}, {"measurement": "T/C", "setting": "dose: 675.0 mg/kg/injection, schedule: Q01DX010 (ip), vehicle: saline", "value": "60 % of control"}]}, {"smiles": "O=C(Nc1ccc(NC2=NCCN2)cc1)c1ccc(C(=O)Nc2ccc(NC3=NCCN3)cc2)cc1", "values": [{"measurement": "T/C", "setting": "dose: 2.0 mg/kg/injection, schedule: Q01DX010 (ip), vehicle: saline", "value": "78 % of control"}, {"measurement": "T/C", "setting": "dose: 4.0 mg/kg/injection, schedule: Q01DX010 (ip), vehicle: saline", "value": "81 % of control"}, {"measurement": "T/C", "setting": "dose: 8.0 mg/kg/injection, schedule: Q01DX010 (ip), vehicle: saline", "value": "36 % of control"}]}, {"smiles": "CO[C@@H]1[C@@H](OC2OC(C)C(OC3CC(C)(O)C(OC(=O)CC(C)C)C(C)O3)C(N(C)C)C2O)[C@@H](CC=O)C[C@@H](C)C(=O)/C=C/C2O[C@H]2C[C@@H](C)OC(=O)C[C@H]1OC(C)=O", "note": "(some centres not stated)", "values": [{"measurement": "T/C", "setting": "[7]", "value": "89 % of control"}, {"measurement": "T/C", "setting": "dose: 75.0 mg/kg/injection, schedule: Q01DX010 (ip), vehicle: saline", "value": "105 % of control"}, {"measurement": "T/C", "setting": "[3]", "value": "90 % of control"}, {"measurement": "T/C", "setting": "dose: 150.0 mg/kg/injection, schedule: Q01DX010 (ip), vehicle: saline", "value": "90 % of control"}, {"measurement": "T/C", "setting": "[4]", "value": "95 % of control"}, {"measurement": "T/C", "setting": "[6]", "value": "21 % of control"}, {"measurement": "T/C", "setting": "dose: 400.0 mg/kg/injection, schedule: Q01DX010 (ip), vehicle: saline", "value": "71 % of control"}]}, {"smiles": "O=C(O)CCCc1ccc(N(CCCl)CCCl)cc1", "values": [{"measurement": "T/C", "setting": "dose: 1.56 mg/kg/injection, schedule: Q01DX010 (ip), vehicle: saline", "value": "69 % of control"}, {"measurement": "T/C", "setting": "dose: 3.13 mg/kg/injection, schedule: Q01DX010 (ip), vehicle: saline", "value": "31 % of control and 52 % of control"}, {"measurement": "T/C", "setting": "[5]", "value": "32 % of control and 37 % of control"}, {"measurement": "T/C", "setting": "[1]", "value": "3 % of control"}]}, {"smiles": "C[C@]12C[C@H](O)[C@H]3[C@@H](CCC4=CC(=O)CC[C@@]43C)[C@@H]1CC[C@@H]2C(=O)CO", "values": [{"measurement": "T/C", "setting": "dose: 12.5 mg/kg/injection, schedule: Q01DX005 (sc), vehicle: steriod suspending solution", "value": "88 % of control"}, {"measurement": "T/C", "setting": "dose: 25.0 mg/kg/injection, schedule: Q01DX005 (sc), vehicle: steriod suspending solution", "value": "97 % of control"}, {"measurement": "T/C", "setting": "dose: 25.0 mg/kg/injection, schedule: Q01DX010 (sc), vehicle: steriod suspending solution", "value": "91 % of control and 69 % of control"}, {"measurement": "T/C", "setting": "dose: 25.0 mg/kg/injection, schedule: Q03DX004 (sc), vehicle: steriod suspending solution", "value": "91 % of control"}, {"measurement": "T/C", "setting": "dose: 50.0 mg/kg/injection, schedule: Q01DX005 (sc), vehicle: steriod suspending solution", "value": "63 % of control"}, {"measurement": "T/C", "setting": "dose: 50.0 mg/kg/injection, schedule: Q02DX010 (sc), vehicle: steriod suspending solution", "value": "91 % of control"}, {"measurement": "T/C", "setting": "dose: 50.0 mg/kg/injection, schedule: Q03DX004 (sc), vehicle: steriod suspending solution", "value": "56 % of control"}, {"measurement": "T/C", "setting": "dose: 75.0 mg/kg/injection, schedule: Q01DX010 (sc), vehicle: steriod suspending solution", "value": "105 % of control"}, {"measurement": "T/C", "setting": "dose: 75.0 mg/kg/injection, schedule: Q02DX010 (sc), vehicle: steriod suspending solution", "value": "101 % of control"}, {"measurement": "T/C", "setting": "dose: 100.0 mg/kg/injection, schedule: Q01DX005 (sc), vehicle: steriod suspending solution", "value": "32 % of control"}, {"measurement": "T/C", "setting": "dose: 100.0 mg/kg/injection, schedule: Q02DX010 (sc), vehicle: steriod suspending solution", "value": "101 % of control"}, {"measurement": "T/C", "setting": "dose: 100.0 mg/kg/injection, schedule: Q03DX004 (sc), vehicle: steriod suspending solution", "value": "33 % of control"}]}, {"smiles": "NC(N)=NCCCC(N)C(=O)NCCCCCCNC(=O)C(N)CCCN=C(N)N", "note": "(configuration not stated)", "values": [{"measurement": "T/C", "setting": "[2]", "value": "94 % of control"}, {"measurement": "T/C", "setting": "[7]", "value": "85 % of control"}, {"measurement": "T/C", "setting": "[3]", "value": "99 % of control"}, {"measurement": "T/C", "setting": "[4]", "value": "90 % of control"}]}]}
